Laboratory results reported in patent US20250145600A1, “2-((4-((S)-2-(4-CHLORO-2-FLUOROPHENYL)-2-METHYLBENZO[D][1,3]DIOXOL-4-YL)PIPERIDIN-1-YL)METHYL)-1-(((S)-OXETAN-2-YL)METHYL)-1H-IMIDAZOLE DERIVATIVES AS ACTIVATORS OF THE GLP1 RECEPTOR FOR THE TREATMENT OF OBESITY” (Novartis AG, priority 2022, published 2025).
pEC50: −log10 of the molar value.

Molecular target: human GLP1R (hGLP1R) (Homo sapiens, UniProt P43220)
Assay: Human GLP1R β-arrestin recruitment assay (PathHunter)
Format: cell-based
Parameters: insert synthesized by GeneArt 93-0164 (CHO-K1-EA parental cells); 93-0491 (pCMV PK vector bundle)
Settings: CHO-hGLP1R-β-arrestin cells; for pEC50: 2 h at 37° C., top concentration 30 μM, read-out: Beta-Arrestin assay EC50 Mean; for Emax: relative to GLP1(7-36), read-out: Beta-Arrestin assay Emax (%)
Experimental: Compounds of formula (I) according to the invention were tested in the following cellular assays that measure the intracellular cAMP concentration, beta-arrestin recruitment and receptor internalization. The cAMP is generated by the activation of GLP1R. The extent to which the GLP1R is internalized into the cell and away from the plasma membrane following activation is also shown in Table 2. EC50 for each assay is defined as the concentration of the compound that leads to half of the maximum response (after baseline correction). Emax is defined as the maximum response observed for the test compound, normalized to the maximum response observed for the endogenous ligand (GLP1(7-36)) to GLP1R.
Human GLP1R β-Arrestin Recruitment Assay
The extent to which agonists recruited β-arrestin was measured using the PathHunter® β-arrestin assay (DiscoverX). This assay measures binding of β-arrestin to the receptor using an enzyme complementation approach. […] When β-arrestin is recruited to the receptor the enzyme becomes active and generates luminescence in the presence of a chemiluminescent substrate (PathHunter® Detection Kit, DiscoverX cat #93-0001). Luminescence can be measured on a relevant detector. CHO-hGLP1R-β-arrestin cells stably overexpressing hGLP1R with Prolink tag and β-arrestin with EA tag were seeded at 20 μL per well in white 384-well poly-D-Lysine coated plates (Greiner Bio One, cat #781945) in Plating Reagent 2 (DiscoverX, cat #93-0563R^2A), and incubated overnight at 37° C., 5% CO2 with humidity. The following day, agonists were prepared at 5 times the final required concentration. To generate triplicate dose response curves, compounds were serially diluted 3-fold in assay buffer (HBSS, 10 mM Hepes and 0.1% BSA), then added to the cell assay plate to a final volume of 25 μL and final top concentrations starting at 30 μM. In the same plate and assay buffer as the tested compounds, were EC100 control wells containing GLP1 (7-36) peptide (Bachem, cat #H-6795) at a final concentration of 1 μM and also EC0 control wells containing no compound. The plate was incubated at 37° C., 5% CO2 with humidity for 2 h after adding the compounds to the cells. Then the detection reagent was prepared (19 parts cell assay buffer, 5 parts substrate reagent 1 and 1 part substrate reagent 2 as per manufacturers recommendations, DiscoverX cat #93-0001), and 12 μL were added per well to the cell assay plate. The plate was incubated for an additional hour in the dark at RT. Luminescence was then measured with an Envision 2104 Multilabel reader with “TRF Light Unit, 337 nm” (Perkin Elmer) using the Ultra-Sensitive protocol setting “384-well US luminescence detector” with the 384-well luminescence aperture, 0.1 sec per well. β-arrestin recruitment was calculated and expressed as percent of the GLP1 (7-36) EC100 control wells: [(sample signal−mean EC0 signal)/(mean EC100 of GLP1 (7-36) signal−mean EC0 signal)]*100 using Microsoft Excel. Curve fitting for EC50 determinations was performed using GraphPad Prism. The 4-parameter logistic model, Hill slope was used: Y=Bottom+(Top−Bottom)/(1+10^((Log EC50−X)*Hill Slope)), where Y is the functional response; X is the compound concentration; bottom is A0 or the minimum value (at 0 dose); top is Ainf or the maximum value (at infinite dose); EC50 is the point of inflection (i.e. the point on the sigmoid shaped curve halfway between A0 and Ainf). The EC50 value was calculated in μM. Emax is the maximal activity detected within the concentration range, derived from the fitted curve relative to GLP1(7-36).
PathHunter CHO-K1-EA parental cells (DiscoverX, cat #93-0164) were plated at a density of 2×10^6 cells per T75 cm^2 flask in 22 mL of complete medium (AssayComplete Cell Culture kit 107, DiscoverX, cat #92-3107G). The following day, the medium was replaced with 22 mL of fresh medium with no antibiotics and cells were transfected as follows. […]

Chain of human GLP1R (hGLP1R) (P43220 24-463): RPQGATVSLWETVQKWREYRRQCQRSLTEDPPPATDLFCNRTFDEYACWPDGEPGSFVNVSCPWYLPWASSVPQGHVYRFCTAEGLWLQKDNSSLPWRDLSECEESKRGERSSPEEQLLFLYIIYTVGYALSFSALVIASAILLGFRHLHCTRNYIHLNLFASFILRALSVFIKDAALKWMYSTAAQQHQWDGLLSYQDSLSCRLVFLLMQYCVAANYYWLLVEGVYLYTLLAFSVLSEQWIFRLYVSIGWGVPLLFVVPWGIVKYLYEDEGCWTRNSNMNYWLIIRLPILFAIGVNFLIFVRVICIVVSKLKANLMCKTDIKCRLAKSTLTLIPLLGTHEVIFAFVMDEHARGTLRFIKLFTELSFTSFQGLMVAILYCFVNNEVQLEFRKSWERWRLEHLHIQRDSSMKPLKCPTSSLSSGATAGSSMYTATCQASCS

| Structure (SMILES) | pEC50 | Emax [%] |
| --- | --- | --- |
| Cc1c(-c2nc(C(F)(F)F)c(C(=O)O)o2)nc(CN2CCC(c3cccc4c3O[C@@](C)(c3ccc(Cl)cc3F)O4)CC2)n1C[C@@H]1CCO1 [Compound C-14, 2-(2-((4-((S)-2-(4-chloro-2-fluorophenyl)-2-methylbenzo[d][1,3]dioxol-4-yl)piperidin-1-yl)methyl)-5-methyl-1-(((S)-oxetan-2-yl)methyl)-1H-imidazol-4-yl)-4-(trifluoromethyl)oxazole-5-carboxylic acid] | < 4.52 | 0 |
| Cc1c(-c2cnc(C(=O)O)o2)nc(CN2CCC(c3cccc4c3O[C@@](C)(c3ccc(Cl)cc3F)O4)CC2)n1C[C@@H]1CCO1 [Compound C-16, 5-(2-((4-((S)-2-(4-chloro-2-fluorophenyl)-2-methylbenzo[d][1,3]dioxol-4-yl)piperidin-1-yl)methyl)-5-methyl-1-(((S)-oxetan-2-yl)methyl)-1H-imidazol-4-yl)oxazole-2-carboxylic acid] | < 4.52 | 11 |
| Cc1c(-c2cc(C(=O)O)n(C)n2)nc(CN2CCC(c3cccc4c3O[C@@](C)(c3ccc(Cl)cc3F)O4)CC2)n1C[C@@H]1CCO1 [Compound C-17, 3-(2-((4-((S)-2-(4-chloro-2-fluorophenyl)-2-methylbenzo[d][1,3]dioxol-4-yl)piperidin-1-yl)methyl)-5-methyl-1-(((S)-oxetan-2-yl)methyl)-1H-imidazol-4-yl)-1-methyl-1H-pyrazole-5-carboxylic acid] | < 4.52 | 2 |
| Cc1c(-c2coc(C(=O)O)n2)nc(CN2CCC(c3cccc4c3O[C@@](C)(c3ccc(Cl)cc3F)O4)CC2)n1C[C@@H]1CCO1 [Compound C-18, 4-(2-((4-((S)-2-(4-chloro-2-fluorophenyl)-2-methylbenzo[d][1,3]dioxol-4-yl)piperidin-1-yl)methyl)-5-methyl-1-(((S)-oxetan-2-yl)methyl)-1H-imidazol-4-yl)oxazole-2-carboxylic acid] | < 4.52 | 16 |
| Cc1cc(-c2nc(CN3CCC(c4cccc5c4O[C@@](C)(c4ccc(Cl)cc4F)O5)CC3)n(C[C@@H]3CCO3)c2C)oc1C(=O)O [Compound C-19, 5-(2-((4-((S)-2-(4-chloro-2-fluorophenyl)-2-methylbenzo[d][1,3]dioxol-4-yl)piperidin-1-yl)methyl)-5-methyl-1-(((S)-oxetan-2-yl)methyl)-1H-imidazol-4-yl)-3-methylfuran-2-carboxylic acid] | < 4.52 | 7 |
| Cc1nc(CN2CCC(c3cccc4c3O[C@@](C)(c3ccc(Cl)cc3F)O4)CC2)n(C[C@@H]2CCO2)c1-c1coc(C(=O)O)n1 [Compound C-20, 4-(2-((4-((S)-2-(4-chloro-2-fluorophenyl)-2-methylbenzo[d][1,3]dioxol-4-yl)piperidin-1-yl)methyl)-4-methyl-1-(((S)-oxetan-2-yl)methyl)-1H-imidazol-5-yl)oxazole-2-carboxylic acid] | < 4.52 | 0 |
| Cc1nc(CN2CCC(c3cccc4c3O[C@@](C)(c3ccc(Cl)cc3F)O4)CC2)n(C[C@@H]2CCO2)c1-c1cc(C(=O)O)n(C)n1 [Compound C-21, 3-(2-((4-((S)-2-(4-chloro-2-fluorophenyl)-2-methylbenzo[d][1,3]dioxol-4-yl)piperidin-1-yl)methyl)-4-methyl-1-(((S)-oxetan-2-yl)methyl)-1H-imidazol-5-yl)-1-methyl-1H-pyrazole-5-carboxylic acid] | < 4.52 | 0 |
| Cc1c(-c2ccc(C(=O)O)o2)nc(CN2CCC(c3cccc4c3O[C@@](C)(c3ccc(Cl)cc3F)O4)CC2)n1C[C@@H]1CCO1 [Compound C-24, 5-(2-((4-((S)-2-(4-chloro-2-fluorophenyl)-2-methylbenzo[d][1,3]dioxol-4-yl)piperidin-1-yl)methyl)-5-methyl-1-(((S)-oxetan-2-yl)methyl)-1H-imidazol-4-yl)furan-2-carboxylic acid] | < 4.52 | 1 |
